In patent US20100081690A1, “OXAZOLE DERIVATIVES AS POSITIVE ALLOSTERIC MODULATORS OF METABOTROPIC GLUTAMATE RECEPTORS” (ADDEX PHARMA SA, priority 2006, published 2010):

Target: T1, mGluR5 (Rattus norvegicus, UniProt P31424)
T1 construct: positive allosteric modulators of mGluR5 receptors in native preparations; endogenous in cells; host or cells: primary cortical astrocytes from Sprague-Dawley rat embryos (E16-19)
Test: mGluR5 binding assay ([3H]-MPEP, rat brain membranes)
Conditions: competition with 3 nM [3H]-MPEP, rat cortical membranes, 1 h at 4° C.
Text: Activity of compounds of the invention was examined following a radioligand binding technique using whole rat brain and tritiated 2-methyl-6-(phenylethynyl)-pyridine ([^3H]-MPEP) as a ligand following similar methods than those described in Gasparini et al. (2002) Bioorg. Med. Chem. Lett. 12:407-409 and in Anderson et al. (2002) J. Pharmacol. Exp. Ther. 303 (3) 1044-1051.
Cortices were dissected out from brains of 200-300 g Sprague-Dawley rats (Charles River Laboratories, L'Arbresle, France). Tissues were homogenized in 10 volumes (vol/wt) of ice-cold 50 mM Hepes-NaOH (pH 7.4) using a Polytron disrupter (Kinematica AG, Luzern, Switzerland) and centrifuged for 30 min at 40,000 g. (4° C.). […] Protein concentration was determined by the Bradford method (Bio-Rad protein assay, Reinach, Switzerland) with bovine serum albumin as standard.
Membranes were thawed and resuspended in binding buffer containing 20 mM HEPES-NaOH, 3 mM MgCl2, 3 mM CaCl2, 100 mM NaCl, pH 7.4. […] Radioactivity was determined by liquid scintillation spectrometry using a 96-well plate reader (TopCount, Perkin-Elmer, Downers Grove, USA).
The inhibition curves were generated using the Prism GraphPad program (Graph Pad Software Inc, San Diego, USA). […] The mean of IC50 obtained from at least three independent experiments of selected molecules performed in duplicate were calculated.

T1 sequence (P31424 21-1203): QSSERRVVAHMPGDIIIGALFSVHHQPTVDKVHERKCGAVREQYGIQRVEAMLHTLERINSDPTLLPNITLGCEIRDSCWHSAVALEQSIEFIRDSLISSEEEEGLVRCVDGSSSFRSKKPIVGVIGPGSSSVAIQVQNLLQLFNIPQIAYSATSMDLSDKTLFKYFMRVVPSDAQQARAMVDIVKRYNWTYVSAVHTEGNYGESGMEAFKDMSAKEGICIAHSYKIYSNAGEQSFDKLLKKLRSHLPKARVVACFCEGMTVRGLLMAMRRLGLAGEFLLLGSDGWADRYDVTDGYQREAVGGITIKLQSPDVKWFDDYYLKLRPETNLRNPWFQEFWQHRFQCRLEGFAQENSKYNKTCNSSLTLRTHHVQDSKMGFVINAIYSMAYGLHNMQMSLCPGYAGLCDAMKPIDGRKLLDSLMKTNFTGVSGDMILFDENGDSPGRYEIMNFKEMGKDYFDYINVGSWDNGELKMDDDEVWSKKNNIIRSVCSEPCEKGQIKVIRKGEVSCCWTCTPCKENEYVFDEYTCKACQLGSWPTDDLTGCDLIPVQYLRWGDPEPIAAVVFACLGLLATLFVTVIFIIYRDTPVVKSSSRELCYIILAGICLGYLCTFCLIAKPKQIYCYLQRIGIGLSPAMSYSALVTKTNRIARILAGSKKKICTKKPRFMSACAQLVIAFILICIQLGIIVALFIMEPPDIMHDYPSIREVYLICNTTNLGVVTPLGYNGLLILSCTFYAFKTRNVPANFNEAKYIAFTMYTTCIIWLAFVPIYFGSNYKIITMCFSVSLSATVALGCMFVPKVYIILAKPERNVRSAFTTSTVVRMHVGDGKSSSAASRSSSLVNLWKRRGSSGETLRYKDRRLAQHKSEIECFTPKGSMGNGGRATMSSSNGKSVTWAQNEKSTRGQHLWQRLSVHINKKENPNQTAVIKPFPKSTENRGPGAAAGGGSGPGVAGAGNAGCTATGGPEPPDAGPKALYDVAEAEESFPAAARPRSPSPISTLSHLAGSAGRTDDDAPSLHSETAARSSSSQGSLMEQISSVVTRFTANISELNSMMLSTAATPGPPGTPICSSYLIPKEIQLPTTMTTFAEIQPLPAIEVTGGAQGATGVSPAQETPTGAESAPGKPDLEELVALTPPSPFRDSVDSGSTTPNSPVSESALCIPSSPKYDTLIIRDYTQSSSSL

## O=C(c1ccc(F)cc1)N1CCC[C@H](c2nc(-c3cc(F)c[nH]3)co2)C1 [Example 1, (4-Fluoro-phenyl)-{(S)-3-[4-(4-fluoro-1H-pyrrol-2-yl)-oxazol-2-yl]-piperidin-1-yl}-methanone]
  IC50: < 10 µM
